# Laboratory results as given in patent US5302514A, “Maltooligoside derivative, reagent for determining α-amylase activity containing the same as effective ingredient and a process for determining the α-amylase activity using same” (Kikkoman Corporation, priority 1991, dated 1994).
# Legend:
# Assay type in all cases: biochemical
# [1] = biological target: T1, amylase derived from human pancreatic juice (human P type α-amylase) (Homo sapiens, UniProt P04746); test: Km value, P type α-amylase; settings: pH 7.0, 37° C., Lineweaver-Burk
# T1 sequence (P04746 16-511): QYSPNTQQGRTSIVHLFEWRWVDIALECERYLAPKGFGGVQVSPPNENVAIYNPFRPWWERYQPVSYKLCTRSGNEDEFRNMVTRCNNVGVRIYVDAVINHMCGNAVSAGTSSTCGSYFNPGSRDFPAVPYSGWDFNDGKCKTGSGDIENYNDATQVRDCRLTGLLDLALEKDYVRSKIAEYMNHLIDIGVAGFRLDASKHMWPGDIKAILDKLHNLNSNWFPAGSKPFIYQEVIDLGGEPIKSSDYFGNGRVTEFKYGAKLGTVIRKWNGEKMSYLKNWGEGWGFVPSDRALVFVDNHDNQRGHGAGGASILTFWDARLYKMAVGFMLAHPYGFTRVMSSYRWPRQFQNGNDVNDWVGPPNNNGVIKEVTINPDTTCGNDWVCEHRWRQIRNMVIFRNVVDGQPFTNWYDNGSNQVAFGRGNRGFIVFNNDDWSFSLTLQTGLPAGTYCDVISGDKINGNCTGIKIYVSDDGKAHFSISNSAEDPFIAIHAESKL
# Experimental: (§1) Km values, hydrolysis rate, water solubility and the patterns of action in the hydrolysis of the present substrates 2-chloro-4-nitrophenyl 5^5 -eno-4^5 -O-mesyl-β-D-maltopentaoside (EMG5CNP) and 2-chloro-4-nitrophenyl 6^5 -azido-6^5 -deoxy- β-D-maltopentaoside (ADG5CNP) obtained in Example were examined in accordance with the following methods.
# (§2) Substrate solutions were prepared by dissolving in a 50 mM phosphate buffer (pH=7.0) containing 40 mM NaCl and 2 mM MgCl2 a substrate to 0.16, 0.32, 0.48, 0.64, 0.80 and 0.96 mM, respectively.
# (§3) The Km value of each substrate solution was obtained by measuring the hydrolysis rate of the substrate in accordance with the same procedure as in the measurement of hydrolysis rate described below and roughly calculating the Lineweaver-Burk's reciprocal plot (see "Tanpaku-Kohso no Jikken-hou", ed. Takeichi Horio & Jinpei Yamashita, Nanko-do, 1981).
# (§4) Each substrate was dissolved in a 50 mM phosphate buffer (pH=7.0) containing 40 mM NaCl and 2 mM MgCl2 to make three substrate solutions in a concentration of 0.8-1.6 times and three substrate solutions in a concentration of 1.6-3.2 times per the roughly calculated Km value in the aforementioned paragraph (ii).
# (§5) The Km value was calculated in accordance with the same procedure as in the aforementioned paragraph (ii).
# (§6) P: amylase derived from human pancreatic juice, […]
# [2] = biological target: T2, amylase derived from human saliva (human S type α-amylase) (Homo sapiens, UniProt P0DUB6); test: Hydrolysis rate, S type α-amylase; settings: relative to hydrolysis rate of 3 mM G5CNP defined as 10, substrate 7-9 times the Km
# T2 sequence (P0DUB6 16-511): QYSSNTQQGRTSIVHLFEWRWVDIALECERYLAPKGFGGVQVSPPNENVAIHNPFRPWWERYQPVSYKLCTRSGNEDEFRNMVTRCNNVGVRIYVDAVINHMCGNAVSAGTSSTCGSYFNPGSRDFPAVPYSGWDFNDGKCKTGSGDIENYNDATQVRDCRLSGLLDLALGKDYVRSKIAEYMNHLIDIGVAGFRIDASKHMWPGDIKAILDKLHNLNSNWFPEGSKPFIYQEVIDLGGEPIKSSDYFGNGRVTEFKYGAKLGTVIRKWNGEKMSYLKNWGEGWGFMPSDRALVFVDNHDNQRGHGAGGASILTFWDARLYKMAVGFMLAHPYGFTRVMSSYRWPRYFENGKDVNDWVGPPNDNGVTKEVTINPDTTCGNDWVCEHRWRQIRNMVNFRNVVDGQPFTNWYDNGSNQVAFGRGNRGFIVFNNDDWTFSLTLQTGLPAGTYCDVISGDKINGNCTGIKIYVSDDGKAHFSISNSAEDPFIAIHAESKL
# Experimental: (§7) The coupled enzyme solution was prepared in the same manner as in the step (2) of Example 5.
# (§8) Commercially available human P type and S type α-amylase solutions having a concentration of ca. 500 IU/l were prepared in the same manner as in the step (3) of Example 5.
# (§9) With 250 μl of the α-amylase solution prepared in (iii) was mixed 1.0 ml of the coupled enzyme. The mixture was heated at 37° C. for 1 minute, and 2.0 ml of the substrate solution was added with stirring to the mixture. The variation of absorbance at 400 nm was measured for 2 minutes after heating the mixture at 37° C. for 2 minutes. The hydrolysis rate of each substrate, namely the variable absorbance per unit time was expressed with the relative values to the hydrolysis rate of 3 mM G5CNP (the reference substrate) which is defined as 10.
# (§10) S: amylase derived from human saliva.
# [3] = biological target: T1, amylase derived from human pancreatic juice (human P type α-amylase); test: Patterns of action (hydrolyzed product by HPLC), P type α-amylase; settings: 0.5 mM substrate, 37° C., 20 minutes
# Experimental: as §8
# (§11) To 1.0 ml of the substrate solution was added 100 μl of the α-amylase solution prepared in the paragraph (iii) of the aforementioned hydrolysis rate, and the mixture, after stirred sufficiently, was subjected to reaction at 37° C. for 20 minutes. The hydrolyzed product was determined quantitatively by the high performance liquid chromatography of the reaction mixture.
# as §6
# [4] = biological target: T2, amylase derived from human saliva (human S type α-amylase); test: Km value, S type α-amylase; settings: pH 7.0, 37° C., Lineweaver-Burk
# Experimental: as §1, §2, §3, §4, §5, §10
# [5] = biological target: T2, amylase derived from human saliva (human S type α-amylase); test: Patterns of action (hydrolyzed product by HPLC), S type α-amylase; settings: 0.5 mM substrate, 37° C., 20 minutes
# Experimental: as §8, §11, §10
# [6] = biological target: T1, amylase derived from human pancreatic juice (human P type α-amylase); test: Hydrolysis rate, P type α-amylase; settings: relative to hydrolysis rate of 3 mM G5CNP defined as 10, substrate 7-9 times the Km
# Experimental: as §7, §8, §9, §6
SMILES,Km [1] [µM],Hydrolysis rate [2],"Patterns of action, hydrolyzed product G2CNP [3] [mol %]","Patterns of action, hydrolyzed product G3CNP [3] [mol %]","Patterns of action, hydrolyzed product G4CNP [3] [mol %]","Patterns of action, hydrolyzed product GCNP [3] [mol %]",Km [4] [µM],"Patterns of action, hydrolyzed product G2CNP [5] [mol %]","Patterns of action, hydrolyzed product G3CNP [5] [mol %]","Patterns of action, hydrolyzed product G4CNP [5] [mol %]","Patterns of action, hydrolyzed product GCNP [5] [mol %]",Hydrolysis rate [6]
"[N-]=[N+]=NC[C@H]1O[C@H](O[C@H]2[C@H](O)[C@@H](O)[C@@H](O[C@H]3[C@H](O)[C@@H](O)[C@@H](O[C@H]4[C@H](O)[C@@H](O)[C@@H](O[C@H]5[C@H](O)[C@@H](O)[C@H](Oc6ccc([N+](=O)[O-])cc6Cl)O[C@@H]5CO)O[C@@H]4CO)O[C@@H]3CO)O[C@@H]2CO)[C@H](O)[C@@H](O)[C@@H]1O [ADG5CNP, 2-chloro-4-nitrophenyl 6^5-azido-6^5-deoxy-β-D-maltopentaoside]",170,10,97,3,0,0,260,100,0,0,0,10
"C=C1O[C@H](O[C@H]2[C@H](O)[C@@H](O)[C@@H](O[C@H]3[C@H](O)[C@@H](O)[C@@H](O[C@H]4[C@H](O)[C@@H](O)[C@@H](O[C@H]5[C@H](O)[C@@H](O)[C@H](Oc6ccc([N+](=O)[O-])cc6Cl)O[C@@H]5CO)O[C@@H]4CO)O[C@@H]3CO)O[C@@H]2CO)[C@H](O)[C@@H](O)[C@@H]1OS(C)(=O)=O [EMG5CNP, 2-chloro-4-nitrophenyl 5^5-eno-4^5 -O-mesyl-β-D-maltopentaoside]",130,10,97,0,0,3,140,97,0,0,3,10
